The test deals with T1, viral kinase pUL-97 (Human cytomegalovirus, UniProt P16788).
T1 construct: The pUL-97 gene was cloned into a baculovirus vector; GST (glutathione S-transferase) (N); made in house; host or cells: Sf9 insect cells, baculovirus
Put plainly: UL97 kinase assay on Immobilon plate. It counts as biochemical. The conditions noted are these: inhibition of UL 97 kinase activity, read-out: Activity Class [A, B, C]. The gist of the method:
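GST-pUL97 from baculovirus-infected Sf9 cells phosphorylated myelin basic protein with ATP (3 μM in the added assay buffer) and γ-[33P]ATP in Tris-HCl pH 7.5 buffer with MnCl2 and DTT. Reaction ran 1 h at 30 °C with graded compound concentrations and was stopped with EDTA. 33P incorporation was measured by scintillation after filter capture and phosphoric acid washes.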

The mark [1] stands for this setting: class by IC50 / % inhibition at 10 or 100 μM.
The mark [2] stands for this setting: class by IC50 / % inhibition at 10 μM or 100 μM.

Where two headings read alike, the source gives them in different places. Some results are limits rather than exact numbers.

T1 sequence (P16788 whole entry): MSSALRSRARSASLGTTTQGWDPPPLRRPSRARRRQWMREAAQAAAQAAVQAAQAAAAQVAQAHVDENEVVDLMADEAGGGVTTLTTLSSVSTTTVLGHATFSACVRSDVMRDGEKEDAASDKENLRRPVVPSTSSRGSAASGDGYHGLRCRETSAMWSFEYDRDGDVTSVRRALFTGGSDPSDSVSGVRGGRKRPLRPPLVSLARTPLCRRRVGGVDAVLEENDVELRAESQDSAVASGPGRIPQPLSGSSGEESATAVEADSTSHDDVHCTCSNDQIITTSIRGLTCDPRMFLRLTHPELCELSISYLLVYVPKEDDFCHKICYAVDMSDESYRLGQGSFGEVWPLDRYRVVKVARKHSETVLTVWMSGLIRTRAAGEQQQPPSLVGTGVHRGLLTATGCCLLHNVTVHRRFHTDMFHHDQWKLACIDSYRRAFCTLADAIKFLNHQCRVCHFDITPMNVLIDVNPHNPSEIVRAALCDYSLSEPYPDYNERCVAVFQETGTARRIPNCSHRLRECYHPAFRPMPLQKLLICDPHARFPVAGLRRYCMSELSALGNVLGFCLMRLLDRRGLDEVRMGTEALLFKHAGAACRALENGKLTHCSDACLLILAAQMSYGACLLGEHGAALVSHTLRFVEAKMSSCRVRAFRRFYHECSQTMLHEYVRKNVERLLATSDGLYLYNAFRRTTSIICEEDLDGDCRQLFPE

As to `CC(=O)c1ccc(-c2cncc(N3CCN(c4cccc(Cl)c4)CC3)n2)cc1` [compound 103, 1-{4-[4-(3-Chloro-phenyl)-3,4,5,6-tetrahydro-2H-[1,2′]bipyrazinyl-6′-yl]-phenyl}-ethanone], under setting [1], the IC50 lay within 1 to 10 µM. As to `Cc1cccc(N2CCN(c3cncc(-c4cc5ccccc5s4)n3)CC2)c1C` [compound 295, 6′-Benzo[b]thiophen-2-yl-4-(2,3-dimethyl-phenyl)-3,4,5,6-tetrahydro-2H-[1,2′]bipyrazinyl], the IC50 under setting [2] lay in the range of 10 to 100 µM.

Consider `Cc1cccc(-c2cncc(N3CCN(c4cccc(C(F)(F)F)c4)CC3)n2)c1C` [compound 156, 6′-(2,3-Dimethyl-phenyl)-4-(3-trifluoromethyl-phenyl)-3,4,5,6-tetrahydro-2H-[1,2′]bipyrazinyl], for which, under setting [1], the IC50 lay in the range of 10 to 100 µM.

Turning to `c1cc(N2CCN(c3cncc(-c4ccsc4)n3)CC2)ccn1` [compound 79, 4-Pyridin-4-yl-6′-thiophen-3-yl-3,4,5,6-tetrahydro-2H-[1,2′]bipyrazinyl], the IC50 under setting [1] was 1 to 10 µM. In the case of `COc1ccc(Cl)cc1-c1cncc(N2CCN(c3ccncc3)CC2)n1` [compound 259, 6′-(5-Chloro-2-methoxy-phenyl)-4-pyridin-4-yl-3,4,5,6-tetrahydro-2H-[1,2′]bipyrazinyl], under setting [2], the IC50 fell in the range of 10 to 100 µM. For the compound `c1ccc(-c2cncc(N3CCN(c4ccccc4)CC3)n2)cc1` [compound 109, 4,6′-Diphenyl-3,4,5,6-tetrahydro-2H-[1,2′]bipyrazinyl], the IC50 under setting [1] lay within 1 to 10 µM. The same measure, in the same setting: with `Clc1cccc(N2CCN(c3cncc(-c4ccc5ccccc5c4)n3)CC2)c1` [compound 81, 4-(3-Chloro-phenyl)-6′-naphthalen-2-yl-3,4,5,6-tetrahydro-2H-[1,2′]bipyrazinyl] the figure was 10 to 100 µM.

On to `Fc1cccc(-c2cncc(N3CCN(c4ccc(F)cc4F)CC3)n2)c1` [compound 211, 4-(2,4-Difluoro-phenyl)-6′-(3-fluoro-phenyl)-3,4,5,6-tetrahydro-2H-[1,2′]bipyrazinyl], for which, under setting [2], the IC50 lay in the range of 10 to 100 µM. For the compound `CC(=O)c1ccccc1-c1cncc(N2CCN(c3cccc(Cl)c3)CC2)n1` [compound 236, 1-{2-[4-(3-Chloro-phenyl)-3,4,5,6-tetrahydro-2H-[1,2′]bipyrazinyl-6′-yl]-phenyl}-ethanone], the IC50 under setting [2] lay within 10 to 100 µM. With `CC(=O)c1ccc(-c2cncc(N3CCN(c4ccc(F)cc4F)CC3)n2)cc1` [compound 275, 1-{4-[4-(2,4-Difluoro-phenyl)-3,4,5,6-tetrahydro-2H-[1,2′]bipyrazinyl-6′-yl]-phenyl}-ethanone], under setting [2], the IC50 is 1 to 10 µM. Consider `CC(=O)c1ccc(N2CCN(c3cncc(-c4ccc(C)cc4)n3)CC2)cc1` [compound 148, 1-[4-(6′-p-Tolyl-2,3,5,6-tetrahydro-[1,2′]bipyrazinyl-4-yl)-phenyl]-ethanone], for which the IC50 under setting [1] was 1 to 10 µM. In the case of `OCc1ccc(-c2cncc(N3CCN(c4ccccc4)CC3)n2)cc1` [compound 117, [4-(4-Phenyl-3,4,5,6-tetrahydro-2H-[1,2′]bipyrazinyl-6′-yl)-phenyl]-methanol], under setting [1], the IC50 was 1 to 10 µM. Regarding `COc1ccc(N2CCN(c3cncc(-c4cccc(OC)c4)n3)CC2)cc1` [compound 294, 4-(4-Methoxy-phenyl)-6′-(3-methoxy-phenyl)-3,4,5,6-tetrahydro-2H-[1,2′]bipyrazinyl], the IC50 under setting [2] lay in the range of 10 to 100 µM.

With `N#Cc1ccccc1N1CCN(c2cncc(-c3ccc(F)c(Cl)c3)n2)CC1` [compound 62, 2-[6′-(3-Chloro-4-fluoro-phenyl)-2,3,5,6-tetrahydro-[1,2′]bipyrazinyl-4-yl]-benzonitrile], the IC50 under setting [1] lay within 1 to 10 µM. `Fc1ccc(N2CCN(c3cncc(-c4cc5ccccc5s4)n3)CC2)c(F)c1` [compound 272, 6′-Benzo[b]thiophen-2-yl-4-(2,4-difluoro-phenyl)-3,4,5,6-tetrahydro-2H-[1,2′]bipyrazinyl]: the IC50 under setting [2] is 1 to 10 µM.

Take `COc1ccc(-c2cncc(N3CCN(c4cccc(Cl)c4)CC3)n2)cc1OC` [compound 100, 4-(3-Chloro-phenyl)-6′-(3,4-dimethoxy-phenyl)-3,4,5,6-tetrahydro-2H-[1,2′]bipyrazinyl]: the IC50 under setting [1] lay in the range of 1 to 10 µM. Still for that read-out and setting: with `CSc1ccc(-c2cncc(N3CCN(c4ccccc4F)CC3)n2)cc1` [compound 116, 4-(2-Fluoro-phenyl)-6′-(4-methylsulfanyl-phenyl)-3,4,5,6-tetrahydro-2H-[1,2′]bipyrazinyl] the figure was 1 to 10 µM; with `COc1ccc(N2CCN(c3cncc(-c4cccs4)n3)CC2)cc1OC` [compound 44, 4-(3,4-Dimethoxy-phenyl)-6′-thiophen-2-yl-3,4,5,6-tetrahydro-2H-[1,2′]bipyrazinyl], 1 to 10 µM. The same measure, in the same setting: with `COc1cccc(-c2cncc(N3CCN(c4ccc(OC)c(OC)c4)CC3)n2)c1` [compound 134, 4-(3,4-Dimethoxy-phenyl)-6′-(3-methoxy-phenyl)-3,4,5,6-tetrahydro-2H-[1,2′]bipyrazinyl] the figure was 1 to 10 µM. On the same count and under the same terms, in the case of `NC(=O)c1ccc(-c2cncc(N3CCN(c4cccc(Cl)c4)CC3)n2)cc1` [compound 89, 4-[4-(3-Chloro-phenyl)-3,4,5,6-tetrahydro-2H-[1,2′]bipyrazinyl-6′-yl]-benzamide] it was 1 to 10 µM. In the case of `Cc1ccc(N2CCN(c3cncc(-c4csc5ccccc45)n3)CC2)cc1C` [compound 317, 6′-Benzo[b]thiophen-3-yl-4-(3,4-dimethyl-phenyl)-3,4,5,6-tetrahydro-2H-[1,2′]bipyrazinyl], under setting [2], the IC50 was in the range of 10 to 100 µM.

`CC(=O)c1cccc(-c2cncc(N3CCN(c4ccccc4)CC3)n2)c1` [compound 112, 1-[3-(4-Phenyl-3,4,5,6-tetrahydro-2H-[1,2′]bipyrazinyl-6′-yl)-phenyl]-ethanone]: the IC50 under setting [1] was 1 to 10 µM. For the compound `COc1ccc(N2CCN(c3cncc(-c4ccc(C)cc4)n3)CC2)cc1OC` [compound 224, 4-(3,4-Dimethoxy-phenyl)-6′-p-tolyl-3,4,5,6-tetrahydro-2H-[1,2′]bipyrazinyl], the IC50 under setting [2] is 1 to 10 µM. Same read-out and setting: in the case of `COc1ccc(-c2cncc(N3CCN(c4ccc(C)cc4)CC3)n2)cc1F` [compound 265, 6′-(3-Fluoro-4-methoxy-phenyl)-4-p-tolyl-3,4,5,6-tetrahydro-2H-[1,2′]bipyrazinyl] it was 10 to 100 µM; in that of `Cc1ccc(-c2cncc(N3CCN(c4ccccc4)CC3)n2)cc1` [compound 245, 4-Phenyl-6′-p-tolyl-3,4,5,6-tetrahydro-2H-[1,2′]bipyrazinyl], 1 to 10 µM. For `Fc1ccc(-c2cncc(N3CCN(c4cccc(Cl)c4)CC3)n2)cc1` [compound 99, 4-(3-Chloro-phenyl)-6′-(4-fluoro-phenyl)-3,4,5,6-tetrahydro-2H-[1,2′]bipyrazinyl], the IC50 under setting [1] lay within 1 to 10 µM. Consider `Cc1ccc(-c2cncc(N3CCN(c4cnccn4)CC3)n2)cc1` [compound 330, 6-p-Tolyl-2′,3′,5′,6′-tetrahydro-[2,1′;4′,2″]terpyrazine], for which the IC50 under setting [2] fell in the range of 1 to 10 µM. As to `CSc1ccc(-c2cnc(N)c(N3CCN(c4ccncc4)CC3)n2)cc1` [compound 75, 6′-(4-Methylsulfanyl-phenyl)-4-pyridin-4-yl-3,4,5,6-tetrahydro-2H-[1,2′]bipyrazinyl-3′-ylamine], the IC50 under setting [1] was below 1 µM. On to `COc1ccc2cc(-c3cncc(N4CCN(c5ccc(C(C)=O)cc5)CC4)n3)ccc2c1` [compound 213, 1-{4-[6′-(6-Methoxy-naphthalen-2-yl)-2,3,5,6-tetrahydro-[1,2′]bipyrazinyl-4-yl]-phenyl}-ethanone], for which, under setting [2], the IC50 is 1 to 10 µM.

In the case of `CC(=O)c1cccc(-c2cncc(N3CCN(c4cccc(Cl)c4)CC3)n2)c1` [compound 101, 1-{3-[4-(3-Chloro-phenyl)-3,4,5,6-tetrahydro-2H-[1,2′]bipyrazinyl-6′-yl]-phenyl}-ethanone], under setting [1], the IC50 was 1 to 10 µM. Same read-out and setting: with `N#Cc1cccc(-c2cncc(N3CCN(c4ccncc4)CC3)n2)c1` [compound 167, 3-(4-Pyridin-4-yl-3,4,5,6-tetrahydro-2H-[1,2′]bipyrazinyl-6′-yl)-benzonitrile] the figure was 1 to 10 µM.

With `Cc1cccc(-c2cncc(N3CCN(c4ccccc4F)CC3)n2)c1C` [compound 250, 6′-(2,3-Dimethyl-phenyl)-4-(2-fluoro-phenyl)-3,4,5,6-tetrahydro-2H-[1,2′]bipyrazinyl], under setting [2], the IC50 fell in the range of 10 to 100 µM. Same read-out and setting: with `COc1cccc(N2CCN(c3cncc(-c4csc5ccccc45)n3)CC2)c1` [compound 286, 6′-Benzo[b]thiophen-3-yl-4-(3-methoxy-phenyl)-3,4,5,6-tetrahydro-2H-[1,2′]bipyrazinyl] the figure was 1 to 10 µM; with `COc1ccc(-c2cncc(N3CCN(c4ccc(Cl)c(Cl)c4)CC3)n2)cc1OC` [compound 371, 4-(3,4-Dichloro-phenyl)-6′-(3,4-dimethoxy-phenyl)-3,4,5,6-tetrahydro-2H-[1,2′]bipyrazinyl], 10 to 100 µM; with `Fc1cccc(-c2cncc(N3CCN(c4ccccc4F)CC3)n2)c1` [compound 198, 4-(2-Fluoro-phenyl)-6′-(3-fluoro-phenyl)-3,4,5,6-tetrahydro-2H-[1,2′]bipyrazinyl], 10 to 100 µM.

For the compound `NC(=O)c1ccc(-c2cncc(NCCc3c[nH]c4ccccc34)n2)cc1` [compound 35, 4-{6-[2-(1H-Indol-3-yl)-ethylamino]-pyrazin-2-yl}-benzamide], the IC50 under setting [1] was below 1 µM.

In the case of `c1ccc(C2CCN(c3cncc(-c4ccc5ccccc5c4)n3)CC2)cc1` [compound 337, 2-Naphthalen-2-yl-6-(4-phenyl-piperidin-1-yl)-pyrazine], under setting [2], the IC50 is 1 to 10 µM. As for `c1ccc2sc(-c3cncc(N4CCN(c5ccncc5)CC4)n3)cc2c1` [compound 69, 6′-Benzo[b]thiophen-2-yl-4-pyridin-4-yl-3,4,5,6-tetrahydro-2H-[1,2′]bipyrazinyl], the IC50 under setting [1] was below 1 µM.

(Values after US20080194574A1, “Pyrazine Derivatives As Effective Compounds Against Infectious Diseases” (AXXIMA PHARMACEUTICALS AG, priority 2003, published 2008).)
